Drawing on a melting point compilation (Tetko et al.), this text covers melting point for 48 compounds.

As usually defined, the melting point is the temperature, or range, at which the solid turns liquid.

As to `CN(C)CCc1ccc(C(=O)O)cc1`, the melting point fell in the range of 163 to 165 °C.

`O=C(O)c1noc(-c2cc(F)cc(F)c2)n1`: the melting point is 136 to 138 °C.

Regarding `Nc1nc2ccccc2n1N`, the melting point was 259 to 261 °C.

As to `Nc1ccccc1-c1nc(C2CC2)n[nH]1`, the melting point lay in the range of 213 to 215 °C.

Regarding `COc1cccc(-n2c(C)cc(C(=O)O)c2C)c1`, the melting point was 142 to 144 °C.

`Brc1ccc(Cn2cccn2)cc1` registered a melting point of 43 to 45 °C.

`CCCc1cc(N)on1` registered a melting point of 54 to 58 °C.

With `NC(=O)C1CNc2ccccc21` (stereo not drawn), the melting point was 150 to 152 °C.

The compound `Oc1nc(-c2ccc(Cl)cc2)cs1` displayed a melting point of 218 to 220 °C.

`O=C(O)C(=O)Cc1ccc2ccccc2c1` displayed a melting point of 188 to 190 °C.

Compound `N#Cc1c(N)nc2sc(C(=O)Nc3ccc(Br)cc3)c(N)c2c1-c1ccco1` gave a melting point of 257 to 259 °C.

As to `O=C1CCCc2cc(Br)ccc2N1`, the melting point lay within 119 to 121 °C.

`CC1C=CC2C(=O)N(C(C)C)C(=O)C2C1C(=O)O` (stereo not drawn): the melting point fell in the range of 149 to 151 °C.

In the case of `Cc1cc(Oc2cnccn2)ccc1N`, the melting point fell in the range of 125 to 127 °C.

Take `CC1Oc2ccccc2N(CC(=O)O)C1=O` (stereo not drawn): the melting point lay within 146 to 148 °C.

For `Cn1nc(Br)c2c(=O)[nH]cnc21`, the melting point is 296 to 298 °C.

In the case of `O=c1cnc2ccccc2n1CCS(=O)(=O)F`, the melting point lay in the range of 145 to 147 °C.

In the case of `Cc1[nH]c2ccccc2c1CC#N`, the melting point is 79 to 81 °C.

In turn, `COCCOc1ccc(Cl)c(C(=O)O)n1` had a melting point of 89 to 91 °C.

Turning to `COc1ccc(/C=C/C(=O)O)cc1S(=O)(=O)NC(C)C`, the melting point is 202 to 204 °C.

`Cc1ccc(-c2csc(CC(N)=NO)n2)cc1`: the melting point fell in the range of 146 to 148 °C.

With `C1CCc2nnc(C3CCCNC3)n2CC1` (stereo not drawn), the melting point fell in the range of 171 to 173 °C.

Compound `Cn1nc(C(C)(C)C)cc1NC(=O)CCl` registered a melting point of 138 to 140 °C.

For the compound `O=C(O)Cn1cc([N+](=O)[O-])cn1`, the melting point lay within 153 to 155 °C.

In turn, `O=S(=O)(Cl)N1CC2CCC1C2` (stereo not drawn) had a melting point of 47 to 49 °C.

As to `NS(=O)(=O)c1cc(C(F)(F)F)ccc1Cl`, the melting point lay within 154 to 156 °C.

Take `Cc1cccc([N+](=O)[O-])c1S(=O)(=O)Cl`: the melting point was 91 to 93 °C.

The compound `Cc1cc(=O)oc2cc(OCC(=O)NN)ccc12` yielded a melting point of 179 to 181 °C.

Consider `O=C(O)CN(CC(=O)O)Cc1ccccc1`, for which the melting point was in the range of 200 to 202 °C.

`Cc1sc(-c2ccco2)nc1C(=O)O` yielded a melting point of 229 to 231 °C.

In the case of `O=C(O)c1cccnc1NC1CCCC1`, the melting point was 222 to 224 °C.

The compound `O=C1CCC(C(=O)O)CC1` gave a melting point of 62 to 64 °C.

Take `CC(=O)c1cccc(N2CCCS2(=O)=O)c1`: the melting point fell in the range of 84 to 86 °C.

As to `Cc1ccc(-c2nnc(N)[nH]2)cc1`, the melting point fell in the range of 206 to 208 °C.

As to `Ic1n[nH]c2ccsc12`, the melting point is 174 to 176 °C.

As for `O=C1OC(O)C(Br)=C1Br` (stereo not drawn), the melting point is 122 to 124 °C.

Compound `C=CC(=O)Nc1cccc(Br)c1` came in with a melting point of 122 to 124 °C.

`CCc1ccc(NC(=O)c2nnc(CCl)s2)cc1` returned a melting point of 126 to 128 °C.

In the case of `O=C(O)CCCOc1cccnc1`, the melting point is 125 to 127 °C.

On to `Nc1nnc(Cc2cccc(Cl)c2)s1`, for which the melting point was 196 to 198 °C.

In the case of `CC(C)(C)OC(=O)Nc1cccc2c1OCO2`, the melting point fell in the range of 89 to 91 °C.

Compound `c1ccc(NC2CCNC2)cc1` (stereo not drawn) showed a melting point of 77 to 79 °C.

`O=[N+]([O-])c1ccc(S(=O)(=O)Cl)c(Br)c1`: the melting point lay within 70 to 72 °C.

Turning to `COc1cc(C)ccc1OCC(=O)O`, the melting point was in the range of 118 to 120 °C.

`CC(Cl)C(=O)Nc1ccc(NC(=O)c2cccs2)cc1` (stereo not drawn): the melting point fell in the range of 227 to 229 °C.

Take `Nc1cccc(C=CC(=O)O)c1`: the melting point is 173 to 175 °C.

For `Cc1cc(C=O)c(C)n1-c1ccc2c(c1)CCC2`, the melting point fell in the range of 71 to 75 °C.

`CC(N)c1cccc(N2CCCS2(=O)=O)c1` (stereo not drawn) showed a melting point of 60 to 62 °C.
